Our source for the activity coefficient values is the NIST ThermoML archive (doi:10.1016/j.fluid.2014.11.020).

The nature of the data set: activity coefficient (dimensionless); of the first substance listed, at infinite dilution; xn = mol fraction of the nth substance listed. The following applies: Liquid, Chromatography, x1 = 0.

Numbers after ± are expanded uncertainties.

`Cc1ccc(C)cc1` [1,4-dimethylbenzene] + CCCOC[n+]1ccn(C)c1.F[B-](F)(F)F: the activity coefficient was 10.7 ± 0.73 (323.15 K), 10.3 ± 0.7 (333.15 K) and 10.2 ± 0.7 (343.15 K).

For `Cc1ccc(C)cc1` [1,4-dimethylbenzene] + CCCOC[n+]1ccn(C)c1.N#C[N-]C#N, the activity coefficient (323.15 K) amounted to 5.98 ± 0.41, the activity coefficient (333.15 K) is 6.03 ± 0.41 and the activity coefficient (343.15 K) was determined as 6.05 ± 0.41.

`Cc1ccc(C)cc1` [1,4-dimethylbenzene] + CCCOC[n+]1ccn(C)c1.O=S(=O)([N-]S(=O)(=O)C(F)(F)F)C(F)(F)F: the activity coefficient runs as follows: (323.15 K) 2.58 ± 0.18; (333.15 K) 2.53 ± 0.17; (343.15 K) 2.52 ± 0.17.

For the compound `Cc1ccc(C)cc1` [1,4-dimethylbenzene] + CCCOC[n+]1ccn(Cc2ccccc2)c1.F[B-](F)(F)F, the activity coefficient by setting is: (323.15 K) 5.12 ± 0.35; (333.15 K) 4.85 ± 0.33; (343.15 K) 4.88 ± 0.33.

With `Cc1ccc(C)cc1` [1,4-dimethylbenzene] + CCCOC[n+]1ccn(Cc2ccccc2)c1.N#C[N-]C#N, the activity coefficient runs as follows: (323.15 K) 3.66 ± 0.25; (333.15 K) 3.56 ± 0.24; (343.15 K) 3.46 ± 0.24.

As to `Cc1ccc(C)cc1` [1,4-dimethylbenzene] + CCCOC[n+]1ccn(Cc2ccccc2)c1.O=S(=O)([N-]S(=O)(=O)C(F)(F)F)C(F)(F)F, the activity coefficient reads like this: (323.15 K) 1.56 ± 0.1; (333.15 K) 1.37 ± 0.09; (343.15 K) 1.34 ± 0.09.

For the compound `Cc1ccc(C)cc1` [1,4-dimethylbenzene] + CN(C)c1cc[n+](COCCCOC[n+]2ccc(N(C)C)cc2)cc1.O=S(=O)([N-]S(=O)(=O)C(F)(F)F)C(F)(F)F.O=S(=O)([N-]S(=O)(=O)C(F)(F)F)C(F)(F)F, the activity coefficient was 1.34 ± 0.09 (323.15 K), 1.36 ± 0.09 (333.15 K) and 1.37 ± 0.09 (343.15 K).

For the compound `Cc1ccc(C)cc1` [1,4-dimethylbenzene] + Cn1cc[n+](COCCCOC[n+]2ccn(C)c2)c1.N#C[N-]C#N.N#C[N-]C#N, the activity coefficient runs as follows: (323.15 K) 10.5 ± 0.72; (333.15 K) 10.2 ± 0.69; (343.15 K) 9.96 ± 0.68.

Take `Cc1ccc(C)cc1` [1,4-dimethylbenzene] + Cn1cc[n+](COCCCOC[n+]2ccn(C)c2)c1.O=S(=O)([N-]S(=O)(=O)C(F)(F)F)C(F)(F)F.O=S(=O)([N-]S(=O)(=O)C(F)(F)F)C(F)(F)F: the activity coefficient came out at 2.39 ± 0.16 (323.15 K), 2.41 ± 0.16 (333.15 K) and 2.34 ± 0.16 (343.15 K).

Consider `Cc1ccc(C)cc1` [1,4-dimethylbenzene] + N#C[N-]C#N.N#C[N-]C#N.c1ccc(Cn2cc[n+](COCCCOC[n+]3ccn(Cc4ccccc4)c3)c2)cc1, for which the activity coefficient is, setting by setting: (323.15 K) 8.84 ± 0.6; (333.15 K) 8.42 ± 0.57; (343.15 K) 8.16 ± 0.56.

With `C1COCCO1` [1,4-dioxane] + CCCCCCCCn1cc[n+](COCCC)c1C.N#C[N-]C#N, the activity coefficient reads like this: (323.15 K) 0.77 ± 0.05; (333.15 K) 0.78 ± 0.05; (343.15 K) 0.78 ± 0.05.

Take `C1COCCO1` [1,4-dioxane] + CCCCCCCCn1cc[n+](COCCC)c1C.O=S(=O)([N-]S(=O)(=O)C(F)(F)F)C(F)(F)F: the activity coefficient is 0.5 ± 0.04 (323.15 K), 0.49 ± 0.04 (333.15 K) and 0.49 ± 0.04 (343.15 K).

For the compound `C1COCCO1` [1,4-dioxane] + CCCCCCCCn1cc[n+](COCCCOC[n+]2ccn(CCCCCCCC)c2C)c1C.N#C[N-]C#N.N#C[N-]C#N, the activity coefficient by setting is: (323.15 K) 0.55 ± 0.04; (333.15 K) 0.55 ± 0.04; (343.15 K) 0.55 ± 0.04.

On to `C1COCCO1` [1,4-dioxane] + CCCCCCCCn1cc[n+](COCCCOC[n+]2ccn(CCCCCCCC)c2C)c1C.O=S(=O)([N-]S(=O)(=O)C(F)(F)F)C(F)(F)F.O=S(=O)([N-]S(=O)(=O)C(F)(F)F)C(F)(F)F, for which the activity coefficient by setting is: (323.15 K) 0.28 ± 0.03; (333.15 K) 0.27 ± 0.03; (343.15 K) 0.28 ± 0.03.

For `C1COCCO1` [1,4-dioxane] + CCCOC[n+]1ccc(N(C)C)cc1.O=S(=O)([N-]S(=O)(=O)C(F)(F)F)C(F)(F)F, the activity coefficient was 0.56 ± 0.04 (323.15 K), 0.59 ± 0.04 (333.15 K) and 0.59 ± 0.04 (343.15 K).

Turning to `C1COCCO1` [1,4-dioxane] + CCCOC[n+]1ccn(C)c1.F[B-](F)(F)F, the activity coefficient by setting is: (323.15 K) 1.39 ± 0.09; (333.15 K) 1.42 ± 0.09; (343.15 K) 1.46 ± 0.1.

Turning to `C1COCCO1` [1,4-dioxane] + CCCOC[n+]1ccn(C)c1.N#C[N-]C#N, the activity coefficient was found to be 1.06 ± 0.07 (323.15 K), 1.09 ± 0.07 (333.15 K) and 1.12 ± 0.07 (343.15 K).

Take `C1COCCO1` [1,4-dioxane] + CCCOC[n+]1ccn(C)c1.O=S(=O)([N-]S(=O)(=O)C(F)(F)F)C(F)(F)F: the activity coefficient was determined as 0.57 ± 0.04 (323.15 K), 0.57 ± 0.04 (333.15 K) and 0.58 ± 0.04 (343.15 K).

With `C1COCCO1` [1,4-dioxane] + CCCOC[n+]1ccn(Cc2ccccc2)c1.F[B-](F)(F)F, the activity coefficient (323.15 K) worked out at 0.95 ± 0.06, the activity coefficient (333.15 K) was found to be 0.95 ± 0.06 and the activity coefficient (343.15 K) was 0.96 ± 0.06.

Turning to `C1COCCO1` [1,4-dioxane] + CCCOC[n+]1ccn(Cc2ccccc2)c1.N#C[N-]C#N, the activity coefficient reads like this: (323.15 K) 0.84 ± 0.05; (333.15 K) 0.88 ± 0.06; (343.15 K) 0.89 ± 0.06.

Consider `C1COCCO1` [1,4-dioxane] + CCCOC[n+]1ccn(Cc2ccccc2)c1.O=S(=O)([N-]S(=O)(=O)C(F)(F)F)C(F)(F)F, for which the activity coefficient (323.15 K) was found to be 0.4 ± 0.03, the activity coefficient (333.15 K) came out at 0.36 ± 0.03 and the activity coefficient (343.15 K) worked out at 0.35 ± 0.03.

As to `C1COCCO1` [1,4-dioxane] + CN(C)c1cc[n+](COCCCOC[n+]2ccc(N(C)C)cc2)cc1.O=S(=O)([N-]S(=O)(=O)C(F)(F)F)C(F)(F)F.O=S(=O)([N-]S(=O)(=O)C(F)(F)F)C(F)(F)F, the activity coefficient is, setting by setting: (323.15 K) 0.44 ± 0.04; (333.15 K) 0.45 ± 0.04; (343.15 K) 0.45 ± 0.04.

On to `C1COCCO1` [1,4-dioxane] + Cn1cc[n+](COCCCOC[n+]2ccn(C)c2)c1.N#C[N-]C#N.N#C[N-]C#N, for which the activity coefficient is 1.09 ± 0.07 (323.15 K), 1.11 ± 0.07 (333.15 K) and 1.13 ± 0.07 (343.15 K).

Take `C1COCCO1` [1,4-dioxane] + Cn1cc[n+](COCCCOC[n+]2ccn(C)c2)c1.O=S(=O)([N-]S(=O)(=O)C(F)(F)F)C(F)(F)F.O=S(=O)([N-]S(=O)(=O)C(F)(F)F)C(F)(F)F: the activity coefficient is 0.37 ± 0.03 (323.15 K), 0.39 ± 0.03 (333.15 K) and 0.39 ± 0.03 (343.15 K).

For `C1COCCO1` [1,4-dioxane] + N#C[N-]C#N.N#C[N-]C#N.c1ccc(Cn2cc[n+](COCCCOC[n+]3ccn(Cc4ccccc4)c3)c2)cc1, the activity coefficient by setting is: (323.15 K) 1.32 ± 0.09; (333.15 K) 1.32 ± 0.09; (343.15 K) 1.35 ± 0.09.

As to `C#CCCCCC` [1-heptyne] + CCCCCCCCn1cc[n+](COCCC)c1C.N#C[N-]C#N, the activity coefficient runs as follows: (323.15 K) 2.11 ± 0.14; (333.15 K) 2.09 ± 0.14.

Turning to `C#CCCCCC` [1-heptyne] + CCCCCCCCn1cc[n+](COCCC)c1C.O=S(=O)([N-]S(=O)(=O)C(F)(F)F)C(F)(F)F, the activity coefficient was 1.68 ± 0.11 (323.15 K), 1.64 ± 0.11 (333.15 K) and 1.62 ± 0.11 (343.15 K).

Turning to `C#CCCCCC` [1-heptyne] + CCCCCCCCn1cc[n+](COCCCOC[n+]2ccn(CCCCCCCC)c2C)c1C.N#C[N-]C#N.N#C[N-]C#N, the activity coefficient came out at 2.1 ± 0.14 (323.15 K), 2.12 ± 0.14 (333.15 K) and 2.15 ± 0.15 (343.15 K).

As to `C#CCCCCC` [1-heptyne] + CCCCCCCCn1cc[n+](COCCCOC[n+]2ccn(CCCCCCCC)c2C)c1C.O=S(=O)([N-]S(=O)(=O)C(F)(F)F)C(F)(F)F.O=S(=O)([N-]S(=O)(=O)C(F)(F)F)C(F)(F)F, the activity coefficient turned out to be 1.4 ± 0.09 (323.15 K), 1.4 ± 0.09 (333.15 K) and 1.41 ± 0.09 (343.15 K).

As to `C#CCCCCC` [1-heptyne] + CCCOC[n+]1ccc(N(C)C)cc1.O=S(=O)([N-]S(=O)(=O)C(F)(F)F)C(F)(F)F, the activity coefficient was found to be 3.33 ± 0.23 (323.15 K), 3.35 ± 0.23 (333.15 K) and 3.34 ± 0.23 (343.15 K).

Consider `C#CCCCCC` [1-heptyne] + CCCOC[n+]1ccn(C)c1.F[B-](F)(F)F, for which the activity coefficient by setting is: (323.15 K) 16.6 ± 1.1; (333.15 K) 16.7 ± 1.1; (343.15 K) 16.7 ± 1.1.

As to `C#CCCCCC` [1-heptyne] + CCCOC[n+]1ccn(C)c1.N#C[N-]C#N, the activity coefficient (323.15 K) turned out to be 10.9 ± 0.74, the activity coefficient (333.15 K) worked out at 10.9 ± 0.74 and the activity coefficient (343.15 K) worked out at 10.7 ± 0.73.

In the case of `C#CCCCCC` [1-heptyne] + CCCOC[n+]1ccn(Cc2ccccc2)c1.F[B-](F)(F)F, the activity coefficient is 8.53 ± 0.58 (323.15 K), 8.35 ± 0.57 (333.15 K) and 8.28 ± 0.56 (343.15 K).

Take `C#CCCCCC` [1-heptyne] + CCCOC[n+]1ccn(Cc2ccccc2)c1.N#C[N-]C#N: the activity coefficient by setting is: (323.15 K) 6.34 ± 0.43; (333.15 K) 6.08 ± 0.41.

As to `C#CCCCCC` [1-heptyne] + CCCOC[n+]1ccn(Cc2ccccc2)c1.O=S(=O)([N-]S(=O)(=O)C(F)(F)F)C(F)(F)F, the activity coefficient worked out at 2.82 ± 0.19 (323.15 K), 2.42 ± 0.16 (333.15 K) and 2.25 ± 0.15 (343.15 K).

For the compound `C#CCCCCC` [1-heptyne] + CN(C)c1cc[n+](COCCCOC[n+]2ccc(N(C)C)cc2)cc1.O=S(=O)([N-]S(=O)(=O)C(F)(F)F)C(F)(F)F.O=S(=O)([N-]S(=O)(=O)C(F)(F)F)C(F)(F)F, the activity coefficient was 4.2 ± 0.29 (323.15 K), 4.09 ± 0.28 (333.15 K) and 4.01 ± 0.27 (343.15 K).

As to `C#CCCCCC` [1-heptyne] + Cn1cc[n+](COCCCOC[n+]2ccn(C)c2)c1.N#C[N-]C#N.N#C[N-]C#N, the activity coefficient (323.15 K) is 27.6 ± 1.9, the activity coefficient (333.15 K) was found to be 26.2 ± 1.8 and the activity coefficient (343.15 K) turned out to be 26.1 ± 1.8.
